Assay results as given in ChEMBL document CHEMBL5034031, “Discovery of Next-Generation Tropomyosin Receptor Kinase Inhibitors for Combating Multiple Resistance Associated with Protein Mutation” (J Med Chem, 2021).

Columns and labels:
[1] = molecular target: Cytoplasmic tyrosine-protein kinase BMX (Homo sapiens) (UniProt P51813); assay: Inhibition of BMX (unknown origin) at 1 uM relative to control
BaF3 [2] = assay: Antiproliferative activity against mouse BaF3 cells transfected with ETV6-wild type TRKC assessed as cell viability incubated for 72 hrs by CCK8 assay; format: functional, cell-based; details: BaF3, 72 h
[3] = Tmax in Beagle dog at 5 mg/kg, ig measured upto 24 hrs by LC-MS/MS analysis; format: ADME, organism-based, Canis lupus familiaris; details: in vivo, po
[4] = molecular target: Mitogen-activated protein kinase 3 (Homo sapiens) (UniProt P27361); assay: Inhibition of ERK1 (unknown origin) at 1 uM relative to control
hERG (KCNH2) = hERG (KCNH2) (Homo sapiens, UniProt Q12809); assay: Inhibition of hERG at 10 uM relative to control
[5] = molecular target: ALK tyrosine kinase receptor (Homo sapiens) (UniProt Q9UM73); assay: Inhibition of ALK (unknown origin) at 1 uM relative to control
[6] = Cmax in Beagle dog at 5 mg/kg, ig measured upto 24 hrs by LC-MS/MS analysis; format: ADME, organism-based, Canis lupus familiaris; parameters: route […], dose 5 mg/kg, time <=24; details: in vivo, po
[7] = molecular target: Maternal embryonic leucine zipper kinase (Homo sapiens) (UniProt Q14680); assay: Inhibition of MELK (unknown origin) at 1 uM relative to control
[8] = molecular target: Serine/threonine-protein kinase DCLK2 (Homo sapiens) (UniProt Q8N568); assay: Inhibition of DCK2 (unknown origin) at 1 uM relative to control
[9] = molecular target: Vascular endothelial growth factor receptor 1 (Homo sapiens) (UniProt P17948); assay: Inhibition of FLT1 (unknown origin) at 1 uM relative to control
[10] = Toxicity in BALB/c nude mouse xenografted with mouse BAF3 cells harboring TMP3 fused TRKA G595R mutant assessed as mortality at 30 mg/kg, po administered twice daily for 12 to […] consecutive days; format: organism-based; details: in vivo, time 12-14 day
[11] = Cmax in Beagle dog at 1 mg/kg, iv measured upto 24 hrs by LC-MS/MS analysis; format: ADME, organism-based, Canis lupus familiaris; parameters: route intravenous, dose 1 mg/kg, time <=24; details: in vivo
[12] = molecular target: Tyrosine-protein kinase JAK1 (Homo sapiens) (UniProt P23458); assay: Inhibition of JAK1 (unknown origin) at 1 uM relative to control
Sequence of Tyrosine-protein kinase JAK1 (Homo sapiens) (P23458 whole entry): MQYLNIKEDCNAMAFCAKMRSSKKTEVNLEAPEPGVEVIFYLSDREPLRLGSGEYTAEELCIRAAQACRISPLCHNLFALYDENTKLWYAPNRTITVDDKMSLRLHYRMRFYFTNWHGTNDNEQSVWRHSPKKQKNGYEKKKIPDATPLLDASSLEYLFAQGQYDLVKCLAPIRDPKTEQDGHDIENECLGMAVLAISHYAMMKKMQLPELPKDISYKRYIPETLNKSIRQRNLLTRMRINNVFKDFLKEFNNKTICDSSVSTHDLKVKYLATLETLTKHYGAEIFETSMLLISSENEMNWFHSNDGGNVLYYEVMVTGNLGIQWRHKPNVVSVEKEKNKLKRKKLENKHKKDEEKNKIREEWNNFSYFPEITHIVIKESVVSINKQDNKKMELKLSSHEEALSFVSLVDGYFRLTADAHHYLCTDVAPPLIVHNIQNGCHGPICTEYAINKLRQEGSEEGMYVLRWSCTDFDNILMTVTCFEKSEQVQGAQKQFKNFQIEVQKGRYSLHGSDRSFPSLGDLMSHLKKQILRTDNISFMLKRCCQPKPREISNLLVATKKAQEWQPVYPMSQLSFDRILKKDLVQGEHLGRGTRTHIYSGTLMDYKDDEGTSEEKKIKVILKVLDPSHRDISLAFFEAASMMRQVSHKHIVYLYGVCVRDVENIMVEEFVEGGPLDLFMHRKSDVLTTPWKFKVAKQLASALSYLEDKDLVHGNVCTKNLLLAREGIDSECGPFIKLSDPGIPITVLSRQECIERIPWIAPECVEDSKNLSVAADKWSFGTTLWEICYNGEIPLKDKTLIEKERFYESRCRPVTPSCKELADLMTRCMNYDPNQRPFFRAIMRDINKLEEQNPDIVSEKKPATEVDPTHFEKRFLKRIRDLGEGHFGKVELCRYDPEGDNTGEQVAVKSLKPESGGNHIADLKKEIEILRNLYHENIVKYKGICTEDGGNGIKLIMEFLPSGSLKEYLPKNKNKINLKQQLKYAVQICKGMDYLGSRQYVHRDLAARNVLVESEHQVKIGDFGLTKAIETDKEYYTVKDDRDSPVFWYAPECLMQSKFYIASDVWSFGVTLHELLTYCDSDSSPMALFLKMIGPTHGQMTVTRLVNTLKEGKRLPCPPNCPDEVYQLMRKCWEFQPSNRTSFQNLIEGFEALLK

[13] = molecular target: Voltage-gated inwardly rectifying potassium channel KCNH2 (Homo sapiens, UniProt Q12809); assay: Inhibition of hERG
BaF3 [14] = assay: Antitumor activity against mouse BAF3 cells harboring TMP3 fused wild type TRKA xenografted in BALB/c nude mouse assessed as tumor growth inhibition at 5 mg/kg, po administered twice daily for 12 to […] consecutive days; format: functional; details: time 12-14 day, read-out: TGI
[15] = Plasma protein binding in rat; format: ADME, cell-free; details: read-out: PPB (converted)
[16] = molecular target: T1, High affinity nerve growth factor receptor (Homo sapiens, UniProt P04629)
Target sequence in this assay (P04629 whole entry): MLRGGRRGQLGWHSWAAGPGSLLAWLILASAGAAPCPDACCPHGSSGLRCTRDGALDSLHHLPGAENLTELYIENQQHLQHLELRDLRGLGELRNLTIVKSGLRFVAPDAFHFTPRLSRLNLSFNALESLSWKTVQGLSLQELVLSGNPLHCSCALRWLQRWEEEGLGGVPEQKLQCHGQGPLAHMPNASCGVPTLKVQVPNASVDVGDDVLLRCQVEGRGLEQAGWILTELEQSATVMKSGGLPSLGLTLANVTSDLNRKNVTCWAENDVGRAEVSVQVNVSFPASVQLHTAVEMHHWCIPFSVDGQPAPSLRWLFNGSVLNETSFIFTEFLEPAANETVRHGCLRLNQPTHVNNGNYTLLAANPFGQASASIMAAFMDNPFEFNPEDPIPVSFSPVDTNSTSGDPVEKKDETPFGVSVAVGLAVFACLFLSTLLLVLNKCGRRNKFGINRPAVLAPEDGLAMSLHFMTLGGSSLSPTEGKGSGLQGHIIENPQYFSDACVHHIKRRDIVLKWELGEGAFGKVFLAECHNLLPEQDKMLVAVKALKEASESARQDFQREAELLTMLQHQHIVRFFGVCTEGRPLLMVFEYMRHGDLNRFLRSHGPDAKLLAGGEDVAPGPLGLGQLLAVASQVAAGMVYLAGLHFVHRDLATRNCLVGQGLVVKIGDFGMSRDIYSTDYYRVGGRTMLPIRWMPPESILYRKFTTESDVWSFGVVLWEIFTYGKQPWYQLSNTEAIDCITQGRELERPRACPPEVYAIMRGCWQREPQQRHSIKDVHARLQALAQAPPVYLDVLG

BaF3 [17] = assay: Antiproliferative activity against mouse BaF3 cells transfected with ETV6-wild type TRKA assessed as cell viability incubated for 72 hrs by CCK8 assay; format: functional, cell-based; details: BaF3, 72 h
[18] = molecular target: RAC-alpha serine/threonine-protein kinase (Homo sapiens) (UniProt P31749); assay: Inhibition of AKT1 (unknown origin) at 1 uM relative to control
[19] = molecular target: Serine/threonine-protein kinase PLK1 (Homo sapiens) (UniProt P53350); assay: Inhibition of PLK1 (unknown origin) at 1 uM relative to control
[20] = Metabolic stability in human liver microsomes assessed as half life at 1 uM measured upto 90 mins in presence of NADPH regenerating system by LC-MS/MS analysis; format: ADME, Microsome
BaF3 [21] = assay: animal or person; format: functional; details: Mus musculus, BaF3, po; dose 15 mg/kg; time 12-14 day; read-out: TGI
[22] = Half life in Beagle dog at 1 mg/kg, iv measured upto 24 hrs by LC-MS/MS analysis; format: ADME, organism-based, Canis lupus familiaris; details: in vivo
[23] = molecular target: T1, High affinity nerve growth factor receptor; assay: Inhibition of TRKA (unknown origin) at 1 uM relative to control
[24] = Toxicity in BALB/c mouse xenografted with mouse BAF3 cells harboring TMP3 fused wild type TRKA assessed as body weight loss at 15 mg/kg, po administered twice daily for 12 to 14 consecutive days; format: organism-based; details: in vivo, time 12-14 day
[25] = molecular target: Dual specificity protein kinase CLK2 (Homo sapiens) (UniProt P49760); assay: Inhibition of CLK2 (unknown origin) at 1 uM relative to control
[26] = molecular target: NT-3 growth factor receptor (Homo sapiens, UniProt Q16288, G623R)
Sequence of NT-3 growth factor receptor (Q16288 32-839 G623R limits assumed): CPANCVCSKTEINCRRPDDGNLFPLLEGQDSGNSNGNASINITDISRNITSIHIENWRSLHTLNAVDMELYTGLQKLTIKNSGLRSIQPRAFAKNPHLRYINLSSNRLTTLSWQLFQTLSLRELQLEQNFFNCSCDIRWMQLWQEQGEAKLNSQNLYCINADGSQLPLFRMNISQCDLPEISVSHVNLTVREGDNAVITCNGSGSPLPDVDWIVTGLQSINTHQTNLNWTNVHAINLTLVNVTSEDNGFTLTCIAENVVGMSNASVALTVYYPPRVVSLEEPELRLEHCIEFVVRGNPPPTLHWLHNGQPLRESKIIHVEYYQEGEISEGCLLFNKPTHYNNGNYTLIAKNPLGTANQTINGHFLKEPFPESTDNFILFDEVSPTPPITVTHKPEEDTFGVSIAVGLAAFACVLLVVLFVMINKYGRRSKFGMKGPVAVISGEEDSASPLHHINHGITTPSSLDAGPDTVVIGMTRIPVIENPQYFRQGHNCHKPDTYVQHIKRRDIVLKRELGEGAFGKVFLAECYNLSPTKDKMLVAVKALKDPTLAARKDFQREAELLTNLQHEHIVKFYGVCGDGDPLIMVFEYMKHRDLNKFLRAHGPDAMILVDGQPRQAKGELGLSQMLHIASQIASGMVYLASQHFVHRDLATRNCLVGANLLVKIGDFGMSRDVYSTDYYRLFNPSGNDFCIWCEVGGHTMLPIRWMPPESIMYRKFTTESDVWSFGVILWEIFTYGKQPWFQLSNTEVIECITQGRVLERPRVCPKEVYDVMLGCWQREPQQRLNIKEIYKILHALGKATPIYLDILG

[27] = molecular target: Homeodomain-interacting protein kinase 1 (Homo sapiens) (UniProt Q86Z02); assay: Inhibition of HIPK1 (unknown origin) at 1 uM relative to control
Sequence of Homeodomain-interacting protein kinase 1 (Homo sapiens) (Q86Z02 whole entry, looked up): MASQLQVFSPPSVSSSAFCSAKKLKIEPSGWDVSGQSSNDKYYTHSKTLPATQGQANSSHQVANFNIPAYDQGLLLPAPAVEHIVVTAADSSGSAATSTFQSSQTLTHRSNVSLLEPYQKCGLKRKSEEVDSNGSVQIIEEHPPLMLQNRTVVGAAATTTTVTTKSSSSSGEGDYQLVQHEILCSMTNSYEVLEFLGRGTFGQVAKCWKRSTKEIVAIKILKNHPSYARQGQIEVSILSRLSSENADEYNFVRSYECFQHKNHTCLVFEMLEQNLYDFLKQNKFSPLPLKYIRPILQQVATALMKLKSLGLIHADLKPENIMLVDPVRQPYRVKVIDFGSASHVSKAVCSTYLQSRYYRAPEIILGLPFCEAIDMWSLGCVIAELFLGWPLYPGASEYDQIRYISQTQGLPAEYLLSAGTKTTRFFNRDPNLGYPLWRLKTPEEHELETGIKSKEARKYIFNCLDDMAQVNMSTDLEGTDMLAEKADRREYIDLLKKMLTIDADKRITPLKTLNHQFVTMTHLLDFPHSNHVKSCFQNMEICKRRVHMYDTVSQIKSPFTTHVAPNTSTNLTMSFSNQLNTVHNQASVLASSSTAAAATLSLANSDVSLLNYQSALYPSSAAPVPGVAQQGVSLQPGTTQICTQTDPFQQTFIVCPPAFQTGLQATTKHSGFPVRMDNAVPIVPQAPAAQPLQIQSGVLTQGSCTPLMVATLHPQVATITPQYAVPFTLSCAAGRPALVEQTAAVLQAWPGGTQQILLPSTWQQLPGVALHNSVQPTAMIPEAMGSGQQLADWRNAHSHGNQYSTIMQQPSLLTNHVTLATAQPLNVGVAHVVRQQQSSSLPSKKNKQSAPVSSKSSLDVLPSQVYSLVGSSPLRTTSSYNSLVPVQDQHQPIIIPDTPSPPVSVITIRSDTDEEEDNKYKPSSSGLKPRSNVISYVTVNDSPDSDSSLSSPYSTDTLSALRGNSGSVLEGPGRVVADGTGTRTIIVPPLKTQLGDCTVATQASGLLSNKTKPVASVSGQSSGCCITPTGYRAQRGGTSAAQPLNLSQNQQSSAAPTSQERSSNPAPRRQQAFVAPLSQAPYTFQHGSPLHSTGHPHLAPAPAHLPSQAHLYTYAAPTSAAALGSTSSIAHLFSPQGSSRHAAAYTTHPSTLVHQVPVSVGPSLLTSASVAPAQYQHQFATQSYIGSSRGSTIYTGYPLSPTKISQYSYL

[28] = molecular target: BDNF/NT-3 growth factors receptor (Homo sapiens) (UniProt Q16620); assay: Inhibition of TRKB (unknown origin) at 1 uM relative to control
[29] = molecular target: PAS domain-containing serine/threonine-protein kinase (Homo sapiens) (UniProt Q96RG2); assay: Inhibition of PASK (unknown origin) at 1 uM relative to control
[30] = molecular target: Tyrosine-protein kinase ABL2 (Homo sapiens) (UniProt P42684); assay: Inhibition of ABL2 (unknown origin) at 1 uM relative to control
[31] = molecular target: NT-3 growth factor receptor (Homo sapiens) (UniProt Q16288); assay: Inhibition of TRKC (unknown origin) at 1 uM relative to control
Sequence of NT-3 growth factor receptor (Homo sapiens) (Q16288 32-839 limits assumed): as the sequence (Q16288 32-839 G623R limits assumed) above, with R592G counted along it

[32] = Toxicity in BALB/c mouse xenografted with mouse BAF3 cells harboring ETV6 fused TRKC G623R mutant assessed as body weight loss at 15 to 30 mg/kg, po administered twice daily for 12 to 14 consecutive days; format: organism-based; details: in vivo, dose lower 15 mg/kg, time lower 12 day, dose upper 30 mg/kg, time upper 14 day
[33] = Volume of distribution in Sprague-Dawley rat 1 mg/kg, iv measured upto 24 hrs by LC-MS/MS analysis; format: ADME, organism-based; details: in vivo, read-out: Vz
[34] = Toxicity in BALB/c nude mouse xenografted with mouse BAF3 cells harboring TMP3 fused TRKA G595R mutant assessed as body weight loss at 30 mg/kg, po administered twice daily for 12 to 14 consecutive days; format: organism-based; details: in vivo, time 12-14 day
[35] = molecular target: Mast/stem cell growth factor receptor Kit (Homo sapiens) (UniProt P10721); assay: Inhibition of KIT (unknown origin) at 1 uM relative to control
Sequence of Mast/stem cell growth factor receptor Kit (Homo sapiens) (P10721 whole entry, the tested form may be a part): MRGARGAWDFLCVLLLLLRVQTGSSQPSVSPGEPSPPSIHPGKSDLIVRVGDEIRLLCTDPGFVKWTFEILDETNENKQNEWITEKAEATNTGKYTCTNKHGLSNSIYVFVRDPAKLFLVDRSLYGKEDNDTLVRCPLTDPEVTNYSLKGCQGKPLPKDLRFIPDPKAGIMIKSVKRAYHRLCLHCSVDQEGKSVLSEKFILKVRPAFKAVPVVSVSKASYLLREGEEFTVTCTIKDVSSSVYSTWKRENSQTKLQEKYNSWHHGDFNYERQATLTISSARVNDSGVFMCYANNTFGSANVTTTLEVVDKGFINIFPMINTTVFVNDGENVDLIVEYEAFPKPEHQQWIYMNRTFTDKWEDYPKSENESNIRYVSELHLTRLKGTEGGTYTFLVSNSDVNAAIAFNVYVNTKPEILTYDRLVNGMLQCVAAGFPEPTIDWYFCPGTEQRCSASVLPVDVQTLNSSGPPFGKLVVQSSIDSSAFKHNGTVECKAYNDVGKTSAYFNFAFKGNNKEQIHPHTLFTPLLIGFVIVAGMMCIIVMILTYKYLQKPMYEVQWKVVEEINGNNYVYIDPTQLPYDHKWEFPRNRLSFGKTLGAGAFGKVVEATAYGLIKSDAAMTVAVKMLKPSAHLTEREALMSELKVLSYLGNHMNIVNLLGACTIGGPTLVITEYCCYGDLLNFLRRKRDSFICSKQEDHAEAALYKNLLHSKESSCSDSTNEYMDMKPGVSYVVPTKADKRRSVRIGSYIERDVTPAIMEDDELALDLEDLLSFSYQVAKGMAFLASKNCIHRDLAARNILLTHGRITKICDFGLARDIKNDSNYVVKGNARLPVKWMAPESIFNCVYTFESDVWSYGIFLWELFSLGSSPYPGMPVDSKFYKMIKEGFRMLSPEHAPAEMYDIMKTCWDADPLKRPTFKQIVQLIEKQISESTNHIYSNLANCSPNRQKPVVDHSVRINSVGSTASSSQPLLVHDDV

BaF3 [36] = assay: Antitumor activity against mouse BAF3 cells harboring TMP3 fused TRKA G595R mutant xenografted in BALB/c nude mouse assessed as tumor growth inhibition at 30 mg/kg, po administered twice daily for 12 to […] consecutive days; format: functional; details: time 12-14 day, read-out: TGI
[37] = AUC(0 to infinity) in Sprague-Dawley rat at 5 mg/kg, ig measured upto 24 hrs by LC-MS/MS analysis; format: ADME, organism-based; parameters: route […], dose 5 mg/kg, time <=24; details: in vivo, po
[38] = molecular target: Calcium/calmodulin-dependent protein kinase type II subunit beta (Homo sapiens) (UniProt Q13554); assay: Inhibition of CAMK2 (unknown origin) at 1 uM relative to control

## C[C@@H](Nc1ccn2ncc(-c3cnn(CCO)c3)c2n1)c1cc(F)ccc1OCC(F)F
[1]
  inhibition: > 80%
BaF3 [2]
  IC50: 0.2 nM
[3]
  Tmax: 0.83 h
[4]
  inhibition: < 50%
hERG (KCNH2)
  inhibition at 10 µM: 23%
[5]
  inhibition: > 80%
[6]
  Cmax: 1570 ng/mL
[7]
  inhibition: < 50%
[8]
  inhibition: < 50%
[9]
  inhibition: < 50%
[10]
  Activity: Non-Toxic
[11]
  Cmax: 1500 ng/mL
[12]
  inhibition: > 80%
[13]
  IC50: > 10000 nM
BaF3 [14]
  inhibition in vivo at 5 mg/kg: 64%
[15]
  fraction unbound: 0.121
[16]
  IC50: 0.7 nM
BaF3 [17]
  IC50: 0.2 nM
[18]
  inhibition: < 50%
[19]
  inhibition: < 50%
[20]
  half-life at 1 µM: 5.25 h
BaF3 [21]
  inhibition in vivo at 15 mg/kg: 85%
[22]
  half-life: 7.2 h
[23]
  inhibition: > 80%
[24]
  Activity: Non-Toxic
[25]
  inhibition: < 50%
[26]
  IC50: 0.6 nM
[27]
  inhibition: < 50%
[28]
  inhibition: > 80%
[29]
  inhibition: < 50%
[30]
  inhibition: > 80%
[31]
  inhibition: > 80%
[32]
  Activity: Non-Toxic
[33]
  Vd: 40 L/kg
[34]
  Activity: Non-Toxic
[35]
  inhibition: < 50%
BaF3 [36]
  inhibition in vivo at 30 mg/kg: 61%
[37]
  AUC(0-inf): 540 ng·h/mL
[38]
  inhibition: < 50%
